The results in this text go back to patent US20060004197A1, “Sulfonamide-based compounds as protein tyrosine kinase inhibitors” (priority 2004, published 2006).

What all share (format): biochemical
Holding throughout (conditions): Table 3, Formula II compounds; NI = no inhibition at 100 μg/mL

One test has as its target Recombinant Csk (Homo sapiens, UniProt P41240). Put plainly: Csk tyrosine kinase activity, poly E4Y / 32P-ATP phosphorylation assay.
The target in the next test is FGF receptor (FGFr). Briefly: FGFr tyrosine kinase activity, poly E4Y / 32P-ATP phosphorylation assay.
For another test, the target named is T1, Recombinant human Src (Homo sapiens, UniProt P12931).
T1 construct: made in house; host or cells: baculovirus-insect cell system
T1 sequence (P12931 whole entry): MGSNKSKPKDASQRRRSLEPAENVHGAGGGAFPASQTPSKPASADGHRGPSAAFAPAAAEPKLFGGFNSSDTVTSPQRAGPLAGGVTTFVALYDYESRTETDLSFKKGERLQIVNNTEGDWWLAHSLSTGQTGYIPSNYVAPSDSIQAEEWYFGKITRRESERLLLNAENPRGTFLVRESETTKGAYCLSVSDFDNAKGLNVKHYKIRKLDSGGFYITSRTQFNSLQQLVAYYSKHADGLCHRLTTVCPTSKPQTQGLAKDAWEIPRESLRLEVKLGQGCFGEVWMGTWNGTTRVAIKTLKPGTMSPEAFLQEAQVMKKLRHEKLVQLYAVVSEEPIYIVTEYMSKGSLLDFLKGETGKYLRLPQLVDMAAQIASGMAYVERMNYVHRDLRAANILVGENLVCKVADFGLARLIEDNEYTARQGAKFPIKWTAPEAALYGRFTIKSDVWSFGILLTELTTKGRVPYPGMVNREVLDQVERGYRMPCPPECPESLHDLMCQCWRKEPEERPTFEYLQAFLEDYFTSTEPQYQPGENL
Briefly: Src tyrosine kinase activity, poly E4Y / 32P-ATP phosphorylation assay.

SMILES strings stand for the structures.

Sequence of Recombinant Csk (P41240 whole entry, species assumed): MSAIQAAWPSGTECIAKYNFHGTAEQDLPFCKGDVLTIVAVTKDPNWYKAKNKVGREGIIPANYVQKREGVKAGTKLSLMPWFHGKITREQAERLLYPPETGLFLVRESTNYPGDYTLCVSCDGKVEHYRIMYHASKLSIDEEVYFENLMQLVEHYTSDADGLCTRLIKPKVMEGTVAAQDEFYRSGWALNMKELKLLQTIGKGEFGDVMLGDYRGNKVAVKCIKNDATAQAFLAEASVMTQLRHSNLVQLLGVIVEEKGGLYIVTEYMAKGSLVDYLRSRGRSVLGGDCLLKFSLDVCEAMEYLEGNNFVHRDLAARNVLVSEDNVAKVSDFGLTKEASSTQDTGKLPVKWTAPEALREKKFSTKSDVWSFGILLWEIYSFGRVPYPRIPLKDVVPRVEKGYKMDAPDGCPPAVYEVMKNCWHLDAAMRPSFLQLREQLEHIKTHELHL

By IC50 is commonly meant the midpoint of a concentration-inhibition curve. As for `COc1ccc(Oc2ccc(NS(=O)(=O)c3ccc(F)cc3)c(NS(=O)(=O)c3ccc(F)cc3)c2)cc1` [Compound 12d, 4-fluoro-N-[2-(4-fluoro-benzenesulfonylamino)-4-(4-methoxy-phenoxy)-phenyl]-benzenesulfonamide], the IC50 amounted to 73 µM at Recombinant Csk, 35 µM at FGF receptor (FGFr) and 24 µM on Recombinant human Src.
For `COc1ccc(Oc2ccc(NS(=O)(=O)c3ccc(Oc4ccccc4)cc3)c(NS(=O)(=O)c3ccc(Oc4ccccc4)cc3)c2)cc1` [Compound 12e, N-[4-(4-methoxy-phenoxy)-2-(4-phenoxy-benzenesulfonylamino)-phenyl]-4-phenoxy-benzenesulfonamide], the half-maximal inhibitory concentration (IC50) is more than 144 µM on Recombinant Csk, 46 µM against FGF receptor (FGFr) and 19 µM on Recombinant human Src.
On to `COc1ccc(Oc2ccc(NS(=O)(=O)c3cccc([N+](=O)[O-])c3)c(NS(=O)(=O)c3cccc([N+](=O)[O-])c3)c2)cc1` [Compound 12f, N-[4-(4-methoxy-phenoxy)-2-(3-nitro-benzenesulfonylamino)-phenyl]-3-nitro-benzenesulfonamide], for which the results for the 50% inhibitory concentration (IC50) at Recombinant Csk, against FGF receptor (FGFr) and on Recombinant human Src were more than 167 µM, 35 µM and 20 µM, respectively.
Turning to `Cc1ccc(S(=O)(=O)Nc2ccc(Sc3ccc(Cl)cc3)cc2NS(=O)(=O)c2ccc(C)cc2)cc1` [Compound 12ff, N-[4-(4-chloro-phenylsulfanyl)-2-(4-toluenesulfonylamino)-phenyl]-4-toluenesulfonamide], the IC50 worked out at 8.6 µM on Recombinant Csk, 3.6 µM at FGF receptor (FGFr) and 4 µM on Recombinant human Src.
Taken in the same sequence, the figures for `COc1ccc(Oc2ccc(NS(=O)(=O)Cc3ccccc3)c(NS(=O)(=O)Cc3ccccc3)c2)cc1` [Compound 12g, N-[4-(4-methoxy-phenoxy)-2-phenylmethanesulfonylamino-phenyl]-C-phenyl-methanesulfonamide] were 102 µM, 70 µM and 35 µM.
Turning to `COc1ccc(Sc2ccc(NS(=O)(=O)c3ccc(C)cc3)c(NS(=O)(=O)c3ccc(C)cc3)c2)cc1` [Compound 12gg, N-[5-(4-methoxy-phenylsulfanyl)-2-(4-toluenesulfonylamino)-phenyl]-4-toluenesulfonamide], the IC50 on Recombinant Csk is more than 180 µM; against FGF receptor (FGFr), 17 µM; at Recombinant human Src, 16 µM.
As for `COc1ccc(Oc2ccc(NS(=O)(=O)c3cccc4ccccc34)c(NS(=O)(=O)c3cccc4ccccc34)c2)cc1` [Compound 12h, naphthalene-1-sulfonic acid [4-(4-methoxy-phenoxy)-2-(naphthalen-1-yl-sulfonylamino)-phenyl]-amide], the IC50 at Recombinant Csk was determined as 98 µM; against FGF receptor (FGFr), 36 µM; on Recombinant human Src, 9 µM.
In the same order, the values of `CCCCSc1ccc(NS(=O)(=O)c2ccc(C)cc2)c(NS(=O)(=O)c2ccc(C)cc2)c1` [Compound 12hh, N-[4-butylsulfanyl-2-(4-toluenesulfonylamino)-phenyl]-4-toluenesulfonamide] are more than 198 µM, 30 µM and 18 µM.
Take `COc1ccc(Oc2ccc(NS(=O)(=O)c3ccc4ccccc4c3)c(NS(=O)(=O)c3ccc4ccccc4c3)c2)cc1` [Compound 12i, naphthalene-2-sulfonic acid [4-(4-methoxy-phenoxy)-2-(naphthalen-2-yl-sulfonylamino)-phenyl]-amide]: the IC50 at Recombinant Csk is more than 164 µM; against FGF receptor (FGFr), 48 µM; at Recombinant human Src it was 8 µM.
For `COc1ccc(Oc2ccc(NS(=O)(=O)c3ccc(NC(C)=O)cc3)c(NS(=O)(=O)c3ccc(NC(C)=O)cc3)c2)cc1` [Compound 12j, N-[2-(4-acetamido-benzenesulfonylamino)-4-(4-methoxy-phenoxy)-phenyl]-4-acetamido-benzenesulfonamide], the concentration for half-maximal inhibition (IC50) at Recombinant Csk is more than 160 µM; against FGF receptor (FGFr), 192 µM; at Recombinant human Src, 50 µM.
